Legend:
A-549 = conditions: literature; cited from earlier work
P388 = conditions: literature; cited from earlier work
HT-29 = conditions: Sun and Sakemi 1991; cited from earlier work
A549 = assay type: cell-based; conditions: for GI50 / TGI: A549, 48 hours exposure, SRB; for TGI: total growth inhibition (cytostatic effect)
Excerpt: (§1) The finality of these assays is to interrupt the growth of an “in vitro” tumor cell culture by means of a continued exhibition of the cells to the sample to be testing.
(§2) Inhibition of Cell Growth by Colorimetric Assay
(§3) A colorimetric type of assay, using sulforhodamine B (SRB) reaction has been adapted for a quantitative measurement of cell growth and viability [following the technique described by Philip Skehan et al. (1990), New calorimetric cytotoxicity assay for anticancer drug screening, J. Natl. Cancer Inst., 82:1107-1112].
(§4) This form of assay employs 96 well cell culture microplates of 9 mm diameter (Faircloth et al. Methods in cell science, (1988), 11(4), 201-205; Mosmann et al, Journal of Immunological. Methods (1983), 65(1-2), 55-63). Most of the cell lines are obtained from American Type Culture Collection (ATCC) derived from different human cancer types.
(§5) Cells are maintained in RPMI 1640 10% FBS, supplemented with 0.1 g/L penicillin and 0.1 g/L streptomycin sulphate and then incubated at 37° C., 5% CO2 and 98% humidity. For the experiments, cells were harvested from subconfluent cultures using trypsin and resuspended in fresh medium before plating.
(§6) Cells are seeded in 96 well microtiter plates, at 5×10^3 cells per well in aliquots of 195 μL medium, and they are allowed to attach to the plate surface by growing in drug free medium for 18 hours. Afterward, samples are added in aliquots of 5 μL in a ranging from 10 to 10^−8 μg/mL, dissolved in DMSO:EtOH:PBS (0.5:0.5:99). After 48 hours exposure, the antitumor effect is measured by the SRB methodology: cells are fixed by adding 50 μL of cold 50% (wt/vol) trichloroacetic acid (TCA) and incubated for 60 minutes at 4° C. Plates are washed with deionised water and dried. 100 μL of SRB solution (0.4% wt/vol in 1% acetic acid) is added to each microtiter well and incubated for 10 minutes at room temperature. Unbound SRB is removed by washing with 1% acetic acid. Plates are air dried and bound stain is solubilized with Tris buffer. Optical densities are read on an automated spectrophotometric plate reader at a single wavelength of 490 nm.
(§7) The values for mean+/−SD of data from triplicate wells are calculated. Some parameters for cellular responses can be calculated: GI=growth inhibition, TGI=total growth inhibition (cytostatic effect) and LC=cell killing (cytotoxic effect).

HT29 = assay type: cell-based; conditions: for GI50 / TGI: HT29, 48 hours exposure, SRB; for TGI: total growth inhibition (cytostatic effect)
Excerpt: as §1, §2, §3, §4, §5, §6, §7

MDA-MB-231 = assay type: cell-based; conditions: for GI50 / TGI: MDA-MB-231, 48 hours exposure, SRB; for TGI: total growth inhibition (cytostatic effect)
Excerpt: as §1, §2, §3, §4, §5, §6, §7

CCRF-CEM cancer lines = conditions: Jiang et al. 2001; cited from earlier work
HOP-92 cancer lines = conditions: Jiang et al. 2001; cited from earlier work
IGROV1 tumor cell line = conditions: Jiang et al. 2001; cited from earlier work

| Molecule | GI50 (A549) [nM] | GI50 (HT29) [nM] | TGI (HT29) [Molar] | CC50 (MDA-MB-231) [nM] | GI50 (MDA-MB-231) [nM] | TGI (MDA-MB-231) [Molar] | also measured |
| --- | --- | --- | --- | --- | --- | --- | --- |
| discodermindole | – | – | – | – | – | – | IC50 (A-549): 4.6 µg/mL; IC50 (P388): 1.8 µg/mL; IC50 (HT-29): 12 µg/mL |
| COn1cc(C2CCNC(=NC(C)=O)N2)c2cc(Br)ccc21 (single isomer, unassigned) [Compound IV] | 630 | 329 | 4.65E−7 | 5200 | 411 | 1.37E−6 | TGI (A549): 7.12E−7 Molar; CC50 (HT29): 767 nM |
| COc1nc(-c2c[nH]c3ccccc23)cnc1N [compound 19, 2-amino-3methoxyl-5-(3′-indolyl)pyrazine] | – | – | – | – | – | – | GI50 (CCRF-CEM cancer lines): 810 nM; GI50 (HOP-92 cancer lines): 30 nM |
| COn1cc(C2CCNC(=N)N2)c2cc(Br)c(Br)cc21 (single isomer, unassigned) [Compound V] | 8700 | 7960 | 1.74E−5 | – | 7960 | 2.06E−5 | – |
| 6-hydroxydiscodermindole | – | – | – | – | – | – | IC50 (A-549): > 5 µg/mL; IC50 (P388): 4.6 µg/mL |
| COn1cc(C2CCNC(=NC(C)=O)N2)c2cc(Br)c(Br)cc21 (single isomer, unassigned) [Compound VI] | 1310 | 473 | 9.23E−7 | 4950 | 811 | 1.98E−6 | CC50 (A549): 1150 nM; TGI (A549): 4.05E−6 Molar; CC50 (HT29): 2480 nM |
| CC(=O)N=C1NCCC(c2c[nH]c3ccc(Br)cc23)N1 (single isomer, unassigned) [Compound II] | 656 | 388 | 5.67E−7 | 6260 | 418 | 1.52E−6 | – |
| C1=CN(c2c[nH]c3ccccc23)C(c2c[nH]c3ccccc23)N=C1 (stereo not drawn) [compound 8, 2,3-bis(3-indolyl)pyrimidine] | – | – | – | – | – | – | GI50 (IGROV1 tumor cell line): < 10 nM |

Source: patent US20100048596A2, “Indole Derivatives as Antitumoral Compounds” (Pharma Mar, S.A., priority 2005, published 2010)
